The source of these data is publication PMC12036814 (Angewandte Chemie (International Ed. in English), 2025).

Like-named read-outs stand apart in the source and are kept apart here.

In assay [1] the test system is periodontal ligament cell line (PDL‐hTERT). Nature of the assay: Whole proteome analysis and pathway analysis of treated PDL-hTERT cells. The class given is cell-based, human. Further details: dose or concentration left out as unconfirmed. To be noted: […] μM, 3 days, versus vehicle.
The target of the next assay is T1, MAIP1 (Homo sapiens, UniProt Q8WWC4).
T1 construct: endogenous in cells; host or cells: HEK293
T1 sequence (Q8WWC4 97-291): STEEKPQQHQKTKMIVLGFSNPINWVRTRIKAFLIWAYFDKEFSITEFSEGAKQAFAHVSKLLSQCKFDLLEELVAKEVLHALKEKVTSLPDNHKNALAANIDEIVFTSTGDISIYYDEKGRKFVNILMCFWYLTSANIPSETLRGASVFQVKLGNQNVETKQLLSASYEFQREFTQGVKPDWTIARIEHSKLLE
Nature of the assay: Thermal protein profiling (TPP) in intact HEK293 cells. The class given is cell-based. To be noted: 1 h. Here is the method: (§1) incubated in a thermoshaker (600 rpm, 16 h, 37 °C). The digest was stopped by adding 10 μL formic
(§2) acid (FA) and vortexing followed by centrifugation (12,000 ×g, 3 min, room temperature). 50 mg
(§3) SepPak C18 columns (Waters, Milford, USA, Cat# WAT054960) were equilibrated by gravity flow two
(§4) times with 1 mL acetonitrile and three times with 1 mL aqueous 0.1% trifluoroacetic acid (TFA) solution.
(§5) Subsequently, the samples were loaded by gravity flow, washed three times with 1 mL aqueous 0.1%
(§6) TFA solution and once with 0.5 mL aqueous 0.5% formic acid (F A) solution. Elution of peptides into
(§7) new 2.0 mL Protein LoBind Eppendorf tubes was performed by two times addition of 250 μL elution
(§8) buffer (80% acetonitrile, 0.5% FA) by gravity flow followed by 250 μL elution buffer by vacuum flow
(§9) until all liquid was eluted from the column. The eluates were lyophilized. Before MS measurement the
(§10) (brief centrifugation after each step).
(§11) Thermal protein profiling (TPP)
(§12) The experiment was performed similarly to TPP-TR experiments described by Franken et al. with minor
(§13) modifications.5 HEK293 cells were grown in 8 T175 flasks to approx. 80-90% confluency. Per replicate
(§14) volume of 0.1 N HCl as vehicle control. Per condition two replicates were used, leading to a total of 8
(§15) T175 flasks. The cells were washed with PBS, detached with accutase, the two flask per replicate
(§16) condition combined and the cells pelletized (500 ×g, 3 min, r.t.). The medium was removed and each
(§17) pellet (Cipro #1, Cipro #2, Ctrl. #1, Ctrl #2) washed twice with cold PBS. Each pellet was resuspended
(§18) depending on the sample. The cell suspension of each sample was distributed into 10 PCR tubes
(§19) (100 µL per tube), resulting in 10 stripes á 4 tubes (2×2 conditions, 10 temperature points). The PCR
(§20) tubes were subjected to the temperature gradient using a PCR cycler.
(§21) limitations, two separate programs had to be run to cover the desired temperature range (see
(§22) Table S4). The PCR tubes were heat-treated according to the two programs for 3 min and directly snap
(§23) frozen in liquid nitrogen.
(§24) manufacturer instructions.

The next assay has as its target T2, ULK3 (Homo sapiens, UniProt Q6PHR2).
T2 construct: endogenous in cells; host or cells: HEK293
T2 sequence (Q6PHR2 1-472): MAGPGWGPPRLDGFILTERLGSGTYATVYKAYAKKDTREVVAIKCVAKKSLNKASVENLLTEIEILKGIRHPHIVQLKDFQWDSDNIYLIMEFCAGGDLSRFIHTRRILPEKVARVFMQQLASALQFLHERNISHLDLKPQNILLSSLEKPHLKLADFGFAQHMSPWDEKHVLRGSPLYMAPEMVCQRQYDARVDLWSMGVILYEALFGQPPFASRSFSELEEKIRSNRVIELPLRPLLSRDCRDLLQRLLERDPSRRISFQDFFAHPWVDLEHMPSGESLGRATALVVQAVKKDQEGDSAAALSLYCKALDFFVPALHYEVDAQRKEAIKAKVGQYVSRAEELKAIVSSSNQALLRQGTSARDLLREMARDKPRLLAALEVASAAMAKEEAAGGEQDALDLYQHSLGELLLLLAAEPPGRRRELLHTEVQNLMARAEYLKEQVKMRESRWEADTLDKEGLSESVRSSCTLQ
Described as above. The class given is cell-based. To be noted: 1 h. Here is the method: as §1, §2, §3, §4, §5, §6, §7, §8, §9, §10, §11, §12, §13, §14, §15, §16, §17, §18, §19, §20, §21, §22, §23, §24

In the next assay the target is T3, TRIM26 (Homo sapiens, UniProt Q12899).
T3 construct: endogenous in cells; host or cells: HEK293
T3 sequence (Q12899 1-539): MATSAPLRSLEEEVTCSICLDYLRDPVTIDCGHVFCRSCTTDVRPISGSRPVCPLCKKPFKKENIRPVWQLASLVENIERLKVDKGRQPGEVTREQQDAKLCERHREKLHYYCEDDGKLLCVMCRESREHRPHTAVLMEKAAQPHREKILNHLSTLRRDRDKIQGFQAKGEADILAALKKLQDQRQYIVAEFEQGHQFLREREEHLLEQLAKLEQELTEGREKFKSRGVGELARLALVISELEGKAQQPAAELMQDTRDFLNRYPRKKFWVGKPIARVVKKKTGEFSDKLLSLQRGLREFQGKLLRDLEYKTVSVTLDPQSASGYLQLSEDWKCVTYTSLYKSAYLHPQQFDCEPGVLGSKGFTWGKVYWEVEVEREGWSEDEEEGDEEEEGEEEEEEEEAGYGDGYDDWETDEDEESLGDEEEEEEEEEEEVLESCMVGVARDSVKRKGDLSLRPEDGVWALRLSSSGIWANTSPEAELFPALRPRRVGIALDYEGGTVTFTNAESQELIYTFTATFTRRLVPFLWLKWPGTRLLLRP
Described as above. The class given is cell-based. The conditions noted are these: 1 h. Here is the method:
as §1, §2, §3, §4, §5, §6, §7, §8, §9, §10, §11, §12, §13, §14, §15, §16, §17, §18, §19, §20, §21, §22, §23, §24

The term ΔTm denotes the shift of the melting midpoint relative to a reference. In the case of `O=C(O)c1cn(C2CC2)c2cc(N3CCNCC3)c(F)cc2c1=O` [Ciprofloxacin], the “regulation of ETC complex I and IV subunits” value in assay [1] is “significant down‐regulation of complex I (blue) and complex IV (green) subunits of the ETC”. Besides, the ΔTm at 70 µM at MAIP1 (read-out: ΔTm Rep. 1) was determined as 2.28 °C; on MAIP1 (read-out: ΔTm Rep. 2) it was 3.73 °C; on ULK3 (read-out: ΔTm Rep. 1), 1.72 °C; at ULK3 (read-out: ΔTm Rep. 2), 4.39 °C; on TRIM26 (read-out: ΔTm Rep. 1), 3.54 °C; on TRIM26 (read-out: ΔTm Rep. 2) it was 3.88 °C.
